From US20250034139A1, “AMINE COMPOUNDS HAVING ANTI-INFLAMMATORY, ANTIFUNGAL, ANTIPARASITIC, AND ANTICANCER ACTIVITY” (PHARMA CINQ, LLC, priority 2013, published 2025)

system: 4T1 murine breast cancer cells; assay: Example S: in vitro anticancer screen, 4T1 cells, Wst1; format: cell-based, mouse; details: Mus musculus, 4T1, 18 h, 1 μM, 18 hr, Wst1; read-out: 4T1 1 μM, percent of cancer cell survival relative to vehicle treated cells
How it was run: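 Read-out is Wst1 absorbance (450 nm, reference 630 nm) after roughly 2 hr dye incubation, giving percent cell survival versus vehicle. Before that, compounds at 1 μM or 5 μM were applied for 18 hr to 4T1 cells plated at 1×10^4 per well.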

Row | SMILES | viability at 1 µM [%]
1 | COCCCCCCCCNc1cc[n+](C)cc1.[I-] [FL, 4-(8-Methoxyoctylamino)-1-methylpyridinium iodide] | 27.7
2 | CCCCCCOCCCCCCCCNc1cccc2cnccc12 [FT, N-[8-(Hexyloxy)octyl]isoquinolin-5-amine] | 113
3 | CCCCCCCCCCOCCCCn1cnc2cnc3ccccc3c21 [GA, 1-[4-(Decyloxy)butyl]-1H-imidazo[4,5-c]quinoline] | 97.1

same assay, conditions: Mus musculus, 4T1, 18 h, 5 μM, 18 hr, Wst1; read-out: 4T1 5 μM, percent of cancer cell survival relative to vehicle treated cells

Row | SMILES | viability at 5 µM [%]
4 | COCCCCCCCCNc1cc[n+](C)cc1.[I-] [FL, 4-(8-Methoxyoctylamino)-1-methylpyridinium iodide] | 21.4
5 | CCCCCCOCCCCCCCCNc1cccc2cnccc12 [FT, N-[8-(Hexyloxy)octyl]isoquinolin-5-amine] | 27.6
6 | CCCCCCCCCCOCCCCn1cnc2cnc3ccccc3c21 [GA, 1-[4-(Decyloxy)butyl]-1H-imidazo[4,5-c]quinoline] | 35.5

system: PC-3 prostate cancer cells; assay: Example T: sensitisation of PC-3 cells to doxorubicin, oxaliplatin, paclitaxel or vincristine, Wst1; format: cell-based, human; details: Homo sapiens; PC-3 cells; compound 0.4 μM alone; 72 hours; Wst1; vehicle = 100; read-out: No Chemo: percent cell survival

Row | SMILES | viability at 0.4 µM [%]
7 | COCCCCCCCCNc1cc[n+](C)cc1.[I-] [FL, 4-(8-Methoxyoctylamino)-1-methylpyridinium iodide] | 41.2

same assay, conditions: Homo sapiens; PC-3 cells; compound 1.5 μM alone; 72 hours; Wst1; vehicle = 100; read-out: No Chemo: percent cell survival

Row | SMILES | viability at 1.5 µM [%]
8 | CCCCCCCCCCOCCCCn1cnc2cnc3ccccc3c21 [GA, 1-[4-(Decyloxy)butyl]-1H-imidazo[4,5-c]quinoline] | 41.3

same assay, conditions: Homo sapiens; PC-3 cells; compound 2.5 μM alone; 72 hours; Wst1; vehicle = 100; read-out: No Chemo: percent cell survival

Row | SMILES | viability at 2.5 µM [%]
9 | CCCCCCOCCCCCCCCNc1cccc2cnccc12 [FT, N-[8-(Hexyloxy)octyl]isoquinolin-5-amine] | 41.1

same assay, conditions: PC-3 cells; compound 0.4 μM + doxorubicin 3.5 μM; 72 hours; chemotherapy agent alone normalized to 100%

Row | SMILES | Doxorubicin 3.5 μM: percent cell survival [%]
10 | COCCCCCCCCNc1cc[n+](C)cc1.[I-] [FL, 4-(8-Methoxyoctylamino)-1-methylpyridinium iodide] | 81.3

same assay, conditions: PC-3 cells; compound 0.4 μM + oxaliplatin 100 μM; 72 hours; chemotherapy agent alone normalized to 100%

Row | SMILES | Oxaliplatin 100 μM: percent cell survival [%]
11 | COCCCCCCCCNc1cc[n+](C)cc1.[I-] [FL, 4-(8-Methoxyoctylamino)-1-methylpyridinium iodide] | 87.9

same assay, conditions: PC-3 cells; compound 0.4 μM + paclitaxel 50 μM; 72 hours; chemotherapy agent alone normalized to 100%

Row | SMILES | Paclitaxel 50 μM: percent cell survival [%]
12 | COCCCCCCCCNc1cc[n+](C)cc1.[I-] [FL, 4-(8-Methoxyoctylamino)-1-methylpyridinium iodide] | 92.8

same assay, conditions: PC-3 cells; compound 0.4 μM + vincristine 100 nM; 72 hours; chemotherapy agent alone normalized to 100%

Row | SMILES | Vincristine 100 nM: percent cell survival [%]
13 | COCCCCCCCCNc1cc[n+](C)cc1.[I-] [FL, 4-(8-Methoxyoctylamino)-1-methylpyridinium iodide] | 69.7

same assay, conditions: PC-3 cells; compound 1.5 μM + doxorubicin 3.5 μM; 72 hours; chemotherapy agent alone normalized to 100%

Row | SMILES | Doxorubicin 3.5 μM: percent cell survival [%]
14 | CCCCCCCCCCOCCCCn1cnc2cnc3ccccc3c21 [GA, 1-[4-(Decyloxy)butyl]-1H-imidazo[4,5-c]quinoline] | 82.2

same assay, conditions: PC-3 cells; compound 1.5 μM + oxaliplatin 100 μM; 72 hours; chemotherapy agent alone normalized to 100%

Row | SMILES | Oxaliplatin 100 μM: percent cell survival [%]
15 | CCCCCCCCCCOCCCCn1cnc2cnc3ccccc3c21 [GA, 1-[4-(Decyloxy)butyl]-1H-imidazo[4,5-c]quinoline] | 91.8

same assay, conditions: PC-3 cells; compound 1.5 μM + paclitaxel 50 μM; 72 hours; chemotherapy agent alone normalized to 100%

Row | SMILES | Paclitaxel 50 μM: percent cell survival [%]
16 | CCCCCCCCCCOCCCCn1cnc2cnc3ccccc3c21 [GA, 1-[4-(Decyloxy)butyl]-1H-imidazo[4,5-c]quinoline] | 109.2

same assay, conditions: PC-3 cells; compound 1.5 μM + vincristine 100 nM; 72 hours; chemotherapy agent alone normalized to 100%

Row | SMILES | Vincristine 100 nM: percent cell survival [%]
17 | CCCCCCCCCCOCCCCn1cnc2cnc3ccccc3c21 [GA, 1-[4-(Decyloxy)butyl]-1H-imidazo[4,5-c]quinoline] | 84.2

same assay, conditions: PC-3 cells; compound 2.5 μM + doxorubicin 3.5 μM; 72 hours; chemotherapy agent alone normalized to 100%

Row | SMILES | Doxorubicin 3.5 μM: percent cell survival [%]
18 | CCCCCCOCCCCCCCCNc1cccc2cnccc12 [FT, N-[8-(Hexyloxy)octyl]isoquinolin-5-amine] | 74.4

same assay, conditions: PC-3 cells; compound 2.5 μM + oxaliplatin 100 μM; 72 hours; chemotherapy agent alone normalized to 100%

Row | SMILES | Oxaliplatin 100 μM: percent cell survival [%]
19 | CCCCCCOCCCCCCCCNc1cccc2cnccc12 [FT, N-[8-(Hexyloxy)octyl]isoquinolin-5-amine] | 94.2

same assay, conditions: PC-3 cells; compound 2.5 μM + paclitaxel 50 μM; 72 hours; chemotherapy agent alone normalized to 100%

Row | SMILES | Paclitaxel 50 μM: percent cell survival [%]
20 | CCCCCCOCCCCCCCCNc1cccc2cnccc12 [FT, N-[8-(Hexyloxy)octyl]isoquinolin-5-amine] | 85.2

same assay, conditions: PC-3 cells; compound 2.5 μM + vincristine 100 nM; 72 hours; chemotherapy agent alone normalized to 100%

Row | SMILES | Vincristine 100 nM: percent cell survival [%]
21 | CCCCCCOCCCCCCCCNc1cccc2cnccc12 [FT, N-[8-(Hexyloxy)octyl]isoquinolin-5-amine] | 78.3

system: PC3 human prostate cancer cells; assay: Example S: in vitro anticancer screen, PC-3 cells, Wst1; format: cell-based; details: Homo sapiens, PC-3; 0.4 μM, approximately 20 hours, Wst1; read-out: PC-3, percent of cancer cell survival relative to vehicle treated cells
How it was run: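 Values give percent survival relative to vehicle, read by Wst1 absorbance (450/630 nm) after 2 h dye incubation, in triplicate. Cells were seeded at 2×10^4/well and treated about 20 h with compound at 0.4, 0.5 or 2.5 μM, depending on compound.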

Row | SMILES | viability at 0.4 µM [%]
22 | COCCCCCCCCNc1cc[n+](C)cc1.[I-] [FL, 4-(8-Methoxyoctylamino)-1-methylpyridinium iodide] | 41.2

same assay, conditions: Homo sapiens, PC-3; 1.5 μM, approximately 20 hours, Wst1; read-out: PC-3, percent of cancer cell survival relative to vehicle treated cells

Row | SMILES | viability at 1.5 µM [%]
23 | CCCCCCCCCCOCCCCn1cnc2cnc3ccccc3c21 [GA, 1-[4-(Decyloxy)butyl]-1H-imidazo[4,5-c]quinoline] | 41.3

same assay, conditions: Homo sapiens, PC-3; 2.5 μM, approximately 20 hours, Wst1; read-out: PC-3, percent of cancer cell survival relative to vehicle treated cells

Row | SMILES | viability at 2.5 µM [%]
24 | CCCCCCOCCCCCCCCNc1cccc2cnccc12 [FT, N-[8-(Hexyloxy)octyl]isoquinolin-5-amine] | 41.1

system: THP-1 cells; assay: Example D: LPS-triggered THP-1 cell death assay, acute/5-hour and chronic/48-hour; format: cell-based, Human; details: 10 ng/ml LPS, 0.1 μM test compound, 48 hours
Protocol: Compounds of the invention were tested at 0.1 μM versus AC in the LPS-triggered THP-1 cell death assay. Both acute/5-hour and chronic/48-hour phases of cell death were assessed. Compounds were screened in batches with DMSO as the negative control and AC as the high activity control.

Row | SMILES | Viable cell percent change, Chronic/48-hour, Mean [%]
25 | COCCCCCCCCNc1cc[n+](C)cc1.[I-] [FL, 4-(8-Methoxyoctylamino)-1-methylpyridinium iodide] | 38.59
26 | CCCCCCOCCCCCCCCNc1cccc2cnccc12 [FT, N-[8-(Hexyloxy)octyl]isoquinolin-5-amine] | 3.59
27 | CCCCCCCCCCOCCCCn1cnc2cnc3ccccc3c21 [GA, 1-[4-(Decyloxy)butyl]-1H-imidazo[4,5-c]quinoline] | 16.51
